Test results: publication PMC4694998, “Suppression of β-catenin/TCF transcriptional activity and colon tumor cell growth by dual inhibition of PDE5 and 10” (Oncotarget, 2015)
pIC50: −log10 of the molar value.

Assays:
PDE10 = biological target: T1, PDE10 (Homo sapiens, UniProt Q9Y233); assay: IMAP fluorescence polarization PDE assay, recombinant PDE10; format: biochemical; conditions: recombinant enzyme
T1 construct: purchased BPS Biosciences
Experimental: Recombinant PDE isozymes were purchased from BPS Biosciences. The PDE10 antibody was purchased from GeneTex, while the PDE5 antibody was purchased from Cell Signaling Technologies. Non-targeting control siRNA and PDE10 specific siRNAs were purchased from Qiagen. RNAiMAX transfection reagent was purchased from Invitrogen. DMSO was used as vehicle for all compounds unless otherwise noted. All other reagents were purchased from Sigma.
PDE activity was measured using the IMAP fluorescence polarization (FP) PDE assay (Molecular Devices) in which binding of hydrolyzed fluorescent cyclic nucleotide substrate to the IMAP reagent increases FP as described previously.
The IC50 values were determined as described previously. All experiments were repeated a minimum of three times to determine the reproducibility of the results. All error bars represent standard error of the mean (SEM). Statistical analysis of differences between samples was performed using the Student’s t-test. A P value of < 0.05 was considered statistically significant.

[1] = test system: intracellular cGMP in normal colonocytes; assay: cGMP assay (EIA), colonocytes; format: cell-based, human; conditions: 45 min of treatment
Experimental: Cells were plated at a density of 1 × 10^6 cells per 10 cm tissue culture dish, incubated for 48 hours, and treated with ADT-094 or vehicle control. After 45 min of treatment, cells were lysed and assayed for cGMP content using the cGMP Direct Biotrak EIA kit (GE Healthcare Life Sciences). The assay was done according to the manufacturer’s specifications.

[2] = test system: β-catenin signaling in Caco-2 colon tumor cells; assay: Western blotting of β-catenin, cyclin D1, survivin, Caco-2; format: cell-based, human
Experimental: Western blotting was performed as described previously. Cells were treated with ADT-094 or vehicle for 8 hours before cell lysates were collected.

[3] = test system: β-catenin/TCF transcriptional activity in HCT116 cells; format: cell-based; conditions: HCT116, 24 hours of treatment
Experimental: Cells were seeded at a density of 5 × 10^4 cells per well in 24-well tissue culture plates and incubated overnight at 37°C. Cells were transiently transfected with 0.1 μg TOP-FLASH constructs (Millipore) and 0.1 μg β-galactosidase-expressing vector (Promega). After 24 hours of transfection, cells were treated with ADT-094 or vehicle for 24 hours. At the end of treatment, cells were lysed and both luciferase and β-galactosidase activities were measured using kits from Promega. All luciferase activity was normalized to β-galactosidase activity.

T1 sequence (Q9Y233 267-1055): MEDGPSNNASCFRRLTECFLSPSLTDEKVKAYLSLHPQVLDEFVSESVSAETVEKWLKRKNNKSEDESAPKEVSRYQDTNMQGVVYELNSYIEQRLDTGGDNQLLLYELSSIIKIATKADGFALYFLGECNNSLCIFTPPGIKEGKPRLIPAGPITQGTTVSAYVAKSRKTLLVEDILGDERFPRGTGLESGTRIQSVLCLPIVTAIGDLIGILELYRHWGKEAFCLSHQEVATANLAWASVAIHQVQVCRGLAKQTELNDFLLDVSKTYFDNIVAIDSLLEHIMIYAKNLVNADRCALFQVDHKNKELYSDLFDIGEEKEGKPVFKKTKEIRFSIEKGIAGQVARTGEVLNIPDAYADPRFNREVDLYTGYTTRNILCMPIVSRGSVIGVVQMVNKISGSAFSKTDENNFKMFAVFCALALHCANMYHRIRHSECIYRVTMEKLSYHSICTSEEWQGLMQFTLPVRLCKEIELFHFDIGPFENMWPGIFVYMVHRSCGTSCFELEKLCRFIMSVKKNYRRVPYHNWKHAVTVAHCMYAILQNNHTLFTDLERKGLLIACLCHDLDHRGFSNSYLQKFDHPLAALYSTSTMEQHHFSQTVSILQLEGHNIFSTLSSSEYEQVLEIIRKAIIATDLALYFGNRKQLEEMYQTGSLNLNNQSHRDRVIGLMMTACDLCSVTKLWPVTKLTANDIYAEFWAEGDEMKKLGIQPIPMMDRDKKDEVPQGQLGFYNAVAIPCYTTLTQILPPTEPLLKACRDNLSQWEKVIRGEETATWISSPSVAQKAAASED

In the case of `COc1ccc2c(c1)C(CC(=O)NCc1ccco1)=C(C)/C2=C/c1cc(OC)c(OC)c(OC)c1` [ADT-094, (Z)-N-(furan-2-ylmethyl)-2-(5-methoxy-2-methyl-1-(3,4,5-trimethoxybenzylidene)-1H-inden-3-yl) acetamide], the pIC50 (PDE10) was 6.30, the “intracellular cGMP levels” value [1] was “did not significantly affect” and the “levels of cyclin D1 and survivin” value [2] was “also decreased”. The β-catenin levels [2] was “dose-dependent decrease” and the β-catenin/TCF transcriptional activity [3] was “significantly inhibited”.
